Data on two compounds can be found in ChEMBL document CHEMBL3774317, “Design and synthesis of novel tamoxifen analogues that avoid CYP2D6 metabolism” (Eur J Med Chem, 2016).

Each structure is given as a SMILES string.

Series [1] is described as follows: Cytotoxicity against human HCC2998 cells assessed as cell growth at 10^-7 M after 48 hrs by SRB assay. The format is functional. As to conditions: HCC 2998, 48 h, read-out: Activity. Background: In SRB staining, fixed cells bind dye roughly in proportion to their protein.
A short description of series [2]: Cytotoxicity against human HCT116 cells assessed as cell growth at 10^-4 M after 48 hrs by SRB assay. The format is functional. Particulars: HCT-116, 48 h, read-out: Activity.
Series [3] concerns T47D. As to the kind of experiment: Cytotoxicity against human T47D cells assessed as cell growth at 10^-5 M after 48 hrs by SRB assay. The format is functional. As to conditions: read-out: Activity.
Series [4] deals with MDA-MB-468. As to the kind of experiment: Cytotoxicity against human MDA-MB-468 cells assessed as cell growth at 10^-6 M after 48 hrs by SRB assay. The format is functional. Particulars: MDA-MB-468, 48 h, read-out: Activity.
A short description of series [5]: Cytotoxicity against human Caki1 cells assessed as cell growth at 10^-4 M after 48 hrs by SRB assay. Particulars: CAKI-1, 48 h, read-out: Activity. The format is functional.
Series [6] in a line: Cytotoxicity against human SKOV3 cells assessed as cell growth at 10^-5 M after 48 hrs by SRB assay. The format is functional. Particulars: SK-OV-3, 48 h, read-out: Activity.
The nature of series [7]: Cytotoxicity against human UACC62 cells assessed as cell growth at 10^-6 M after 48 hrs by SRB assay. The format is functional. Particulars: UACC-62, 48 h, read-out: Activity.
The test system of series [8] is NCI-H460. As to the kind of experiment: Cytotoxicity against human NCI-H460 cells assessed as cell growth at 10^-6 M after 48 hrs by SRB assay. The format is functional. Particulars: NCI-H460, 48 h, read-out: Activity.
Series [9] concerns MCF7. As to the kind of experiment: Cytotoxicity against human MCF7 cells assessed as cell growth at 10^-6 M after 48 hrs by SRB assay. Particulars: MCF7, 48 h, read-out: Activity. The format is functional.
Series [10] has as its system CCRF-CEM. Description: Cytotoxicity against human CCRF-CEM cells assessed as cell growth at 10^-5 M after 48 hrs by SRB assay. As to conditions: read-out: Activity. The format is functional.
The test system of series [11] is SK-MEL-2. Description: Cytotoxicity against human SK-MEL-2 cells assessed as cell growth at 10^-8 M after 48 hrs by SRB assay. The format is functional. Particulars: SK-MEL-2, 48 h, read-out: Activity.
A short description of series [12]: Cytotoxicity against human PC3 cells assessed as cell growth at 10^-5 M after 48 hrs by SRB assay. The format is functional. Particulars: PC-3, 48 h, read-out: Activity.
Series [13] relates to Malme-3M. Description: Cytotoxicity against human MALME-3M cells assessed as cell growth at 10^-8 M after 48 hrs by SRB assay. The format is functional. Particulars: read-out: Activity.
Series [14] in a line: Cytotoxicity against human SW620 cells assessed as cell growth at 10^-4 M after 48 hrs by SRB assay. Particulars: SW-620, 48 h, read-out: Activity. The format is functional.
Series [15] in a line: Cytotoxicity against human SKOV3 cells assessed as cell growth at 10^-8 M after 48 hrs by SRB assay. The format is functional. Particulars: SK-OV-3, 48 h, read-out: Activity.
Series [16] can be described thus: Cytotoxicity against human SKOV3 cells assessed as cell growth at 10^-7 M after 48 hrs by SRB assay. Particulars: SK-OV-3, 48 h, read-out: Activity. The format is functional.
A short description of series [17]: Cytotoxicity against human OVCAR8 cells assessed as cell growth at 10^-7 M after 48 hrs by SRB assay. The format is functional. As to conditions: OVCAR-8, 48 h, read-out: Activity.
Series [18] can be described thus: Cytotoxicity against human HCC2998 cells assessed as cell growth at 10^-4 M after 48 hrs by SRB assay. The format is functional. As to conditions: HCC 2998, 48 h, read-out: Activity.
The test system of series [19] is T47D. Description: Cytotoxicity against human T47D cells assessed as cell growth at 10^-6 M after 48 hrs by SRB assay. The format is functional. Particulars: read-out: Activity.
For series [20], the system named is SR. As to the kind of experiment: Cytotoxicity against human SR cells assessed as cell growth at 10^-8 M after 48 hrs by SRB assay. The format is functional. Particulars: read-out: Activity.
Series [21] in a line: Cytotoxicity against human NCI-ADR-RES cells assessed as cell growth at 10^-6 M after 48 hrs by SRB assay. The format is functional. As to conditions: read-out: Activity.
For series [22], the system named is U-251. Description: Cytotoxicity against human U251 cells assessed as cell growth at 10^-4 M after 48 hrs by SRB assay. Particulars: U-251, 48 h, read-out: Activity. The format is functional.
Series [23] can be described thus: Cytotoxicity against human HCC2998 cells assessed as cell growth at 10^-6 M after 48 hrs by SRB assay. The format is functional. Particulars: HCC 2998, 48 h, read-out: Activity.
Series [24] in a line: Cytotoxicity against human Caki1 cells assessed as cell growth at 10^-5 M after 48 hrs by SRB assay. The format is functional. Particulars: CAKI-1, 48 h, read-out: Activity.
For series [25], the system named is K562. Description: Cytotoxicity against human K562 cells assessed as cell growth at 10^-8 M after 48 hrs by SRB assay. The format is functional. Particulars: K562, 48 h, read-out: Activity.
Series [26] in a line: Cytotoxicity against human NCI-ADR-RES cells assessed as cell growth at 0.5 uM after 48 hrs by SRB assay. As to conditions: read-out: Activity. The format is functional.
Series [27] relates to ACHN. Description: Cytotoxicity against human ACHN cells assessed as cell growth at 50 uM after 48 hrs by SRB assay. The format is functional. Particulars: read-out: Activity.
Series [28] can be described thus: Cytotoxicity against human IGROV1 cells assessed as cell growth at 5 uM after 48 hrs by SRB assay. The format is functional. As to conditions: IGROV-1, 48 h, read-out: Activity.
Series [29] can be described thus: Cytotoxicity against human COLO205 cells assessed as cell growth at 50 nM after 48 hrs by SRB assay. The format is functional. As to conditions: COLO 205, 48 h, read-out: Activity.
Series [30] can be described thus: Cytotoxicity against human SKOV3 cells assessed as cell growth at 5 nM after 48 hrs by SRB assay. The format is functional. As to conditions: SK-OV-3, 48 h, read-out: Activity.
The nature of series [31]: Cytotoxicity against human UACC62 cells assessed as cell growth at 5 uM after 48 hrs by SRB assay. The format is functional. As to conditions: UACC-62, 48 h, read-out: Activity.
In series [32] the test system is SK-MEL-28. As to the kind of experiment: Cytotoxicity against human SK-MEL-28 cells assessed as cell growth at 50 uM after 48 hrs by SRB assay. As to conditions: SK-MEL-28, 48 h, read-out: Activity. The format is functional.
The subject of series [33] is SK-MEL-2. As to the kind of experiment: Cytotoxicity against human SK-MEL-2 cells assessed as cell growth at 5 nM after 48 hrs by SRB assay. As to conditions: SK-MEL-2, 48 h, read-out: Activity. The format is functional.
Series [34] in a line: Cytotoxicity against human HCT15 cells assessed as cell growth at 50 nM after 48 hrs by SRB assay. The format is functional. Particulars: HCT-15, 48 h, read-out: Activity.
Series [35] in a line: Metabolic stability in human hepatocytes assessed as remaining parent compound level at 10 uM measured immediately after compound addition by LC/MS analysis. The format is ADME, cell-based, Hepatocyte. Particulars: read-out: Drug metabolism.
The test system of series [36] is SN12C. Description: Cytotoxicity against human SN12C cells assessed as cell growth at 5 uM after 48 hrs by SRB assay. As to conditions: read-out: Activity. The format is functional.
Series [37] has as its system A549. Description: Cytotoxicity against human A549 cells assessed as cell growth at 5 nM after 48 hrs by SRB assay. The format is functional. Particulars: A549, 48 h, read-out: Activity.
Series [38] in a line: Cytotoxicity against human COLO205 cells assessed as cell growth at 5 nM after 48 hrs by SRB assay. The format is functional. Particulars: COLO 205, 48 h, read-out: Activity.
For series [39], the system named is ACHN. Description: Cytotoxicity against human ACHN cells assessed as cell growth at 50 nM after 48 hrs by SRB assay. As to conditions: read-out: Activity. The format is functional.
Series [40] deals with MCF7. Description: Cytotoxicity against human MCF7 cells assessed as cell growth at 0.5 uM after 48 hrs by SRB assay. The format is functional. As to conditions: MCF7, 48 h, read-out: Activity.
Series [41] can be described thus: Cytotoxicity against human SW620 cells assessed as cell growth at 0.5 uM after 48 hrs by SRB assay. The format is functional. As to conditions: SW-620, 48 h, read-out: Activity.
The test system of series [42] is ACHN. As to the kind of experiment: Cytotoxicity against human ACHN cells assessed as cell growth at 5 nM after 48 hrs by SRB assay. The format is functional. Particulars: read-out: Activity.
The nature of series [43]: Cytotoxicity against human BT549 cells assessed as cell growth at 50 uM after 48 hrs by SRB assay. Particulars: BT-549, 48 h, read-out: Activity. The format is functional.

As for `C/C(=C(/c1ccc(O)cc1)c1ccc(OCCN2CCCC2)cc1)c1ccccc1`, the growth at 0.1 µM in [1] is 92%; in series [16], 93%; in series [17] it was 105%. The growth at 100 µM in series [2] is -98%; in [5], -100%; in series [14] it was -92%; in [18], -80%; in series [22] it was -98%. Also, the growth at 10 µM in series [3] was -5%; in series [6] it was 13%; in [10], -1%; in series [12], 19%; in series [24], 17%. The growth at 1 µM in series [4] stood at 84%; in [7], 106%; in [8], 102%; in [9] it was 36%; in series [19], 48%; in series [21], 91%. Also, the growth at 1 µM in series [23] stood at 94%. Also, the growth at 0.01 µM in [11] came out at 97%; in series [13], 99%; in series [15], 88%; in series [20], 96%; in [25] it was 99%.

Turning to `CCCCCCCCCC(=O)Oc1ccc(/C(=C(/C)c2ccccc2)c2ccc(OCCN3CCCC3)cc2)cc1`, the growth at 0.5 µM in series [26] came out at 73%; in series [40], 29%; in series [41], 88%. The growth at 50 µM is -92% in series [27], -95% in series [32] and -76% in series [43]. Further, the growth at 5 µM in series [28] was determined as 84%; in [31], 100%; in series [36] it was 95%. The values for the growth at 0.05 µM in [29], in series [34] and in series [39] were 96%, 90% and 96%, respectively. For the same compound, the growth at 0.005 µM in series [30] is 101%; in series [33], 101%; in [37], 101%; in [38], 104%; in series [42], 101%. The remaining at 0 h, 10 µM in series [35] was 29%.
